From US20130178488A1, “TRICYCLIC COMPOUNDS, PREPARATION METHODS, AND THEIR USES” (priority 2011, published 2013)

target: T1, recombinant human Lp-PLA2 (Homo sapiens, UniProt Q13093); test: Recombinant human Lp-PLA2 assay (rhLp-PLA2, PED6 assay); assay type: biochemical; conditions: one experiment or average of multiple experiments; upper limit of the PED6 assay is pIC50 9.3
T1 sequence (Q13093 22-441): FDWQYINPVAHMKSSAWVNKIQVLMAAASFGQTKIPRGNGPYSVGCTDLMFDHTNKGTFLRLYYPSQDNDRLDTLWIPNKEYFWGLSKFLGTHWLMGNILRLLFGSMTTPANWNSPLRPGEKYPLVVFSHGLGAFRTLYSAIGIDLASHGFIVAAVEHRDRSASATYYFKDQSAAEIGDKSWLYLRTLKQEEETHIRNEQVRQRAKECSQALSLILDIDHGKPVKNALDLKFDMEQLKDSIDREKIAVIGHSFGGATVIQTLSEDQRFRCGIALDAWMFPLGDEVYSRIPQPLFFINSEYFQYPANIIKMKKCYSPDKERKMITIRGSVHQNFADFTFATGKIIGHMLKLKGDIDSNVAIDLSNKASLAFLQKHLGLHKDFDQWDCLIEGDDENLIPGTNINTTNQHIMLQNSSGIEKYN
Text: (1) Recombinant Human Lp-PLA2 Assay (rhLp-PLA2) (Also Referred to as “PED6” Assay)
N-((6-(2,4-dinitrophenyl)amino)-hexanoyl)-2-(4,4-difluoro-5,7-dimethyl-4-bora-3a,4a-diaza-s-indacene-3-pentanoyl)-1-hexadecanoyl-sn-glycero-3-phosphoethanolamine, triethylammonium salt (PED6) is a commercially available fluorescently-labeled phospholipid, which is commercially available from Molecular Probes. There is a quenching para-nitro phenyl (PNP) group in the sn3 position and a Bodipy fluorescein (FL) group in the sn2 position. Upon cleavage with LpPLA2, the Bodipy Fl group is liberated and then may result in an increase in fluorescence. Inhibitors of LpPLA2 therefore prevent this cleavage and no fluorescent increase is observed.
The PED6 assay is run as an unquenched 10 μL assay. Compounds source plate is prepared by making 1:3 (by volume) serial dilution of the compounds into pure DMSO on 384-well microplate. Then 0.01 μL of compounds on compound source plate are transferred into 384 well Greiner 784076 (black) plates by ECHO liquid dispenser. 5 μL of recombinant human Lp-PLA2 enzyme (2 nM rhLp-PLA2 in assay buffer of 50 mM HEPES, pH7.4, 150 mM NaCl, 1 mM CHAPS) is added to each well of the plate with compounds. Plates are centrifuged for 10 sec at 500 rpm. After 30 minutes preincubation, 5 μL of substrate (4 μM PED6 [from 5 mM DMSO stock] in assay buffer of 50 mM HEPES, pH7.4, 150 mM NaCl, 1 mM CHAPS) is added to 384 well Greiner 784076 (black) plates. Plates are centrifuged for 10 sec at 500 rpm. Plate is covered to protect from light and incubated for 20 min at room temperature. Plates are read for Fluorescence intensity at ex: 480/em: 540 using ViewLux microplate imager. PIC50 data, curve and QC analysis is conducted by using XL fit module in Excel.

IC50 [nM]	SMILES
0.794	N#Cc1cc(COc2cc3n(c(=O)n2)CCc2ccccc2-3)ccc1Oc1ccc(Cl)c(C(F)(F)F)c1 [Example 88, 2-(4-chloro-3-(trifluoromethyl)phenoxy)-5-(((4-oxo-6,7-dihydro-4H-pyrimido[6,1-a]isoquinolin-2-yl)oxy)methyl)benzonitrile]
3.16	N#Cc1cc(COc2cc3n(c(=O)n2)CCc2cc(F)ccc2-3)ccc1Oc1cccc(C(F)(F)F)c1 [Example 89, 5-(((9-fluoro-4-oxo-6,7-dihydro-4H-pyrimido[6,1-a]isoquinolin-2-yl)oxy)methyl)-2-(3-(trifluoromethyl)phenoxy)benzonitrile]
1	N#Cc1cc(COc2cc3n(c(=O)n2)CCc2ccccc2-3)ccc1Oc1ccc(C(F)(F)F)nc1 [Example 91, 5-(((4-oxo-6,7-dihydro-4H-pyrimido[6,1-a]isoquinolin-2-yl)oxy)methyl)-2-((6-(trifluoro-methyl)pyridin-3-yl)oxy)benzonitrile]
0.794	N#Cc1cc(COc2cc3n(c(=O)n2)CCc2cc(F)ccc2-3)ccc1Oc1ccc(Cl)c(C(F)(F)F)c1 [Example 92, 2-(4-chloro-3-(trifluoromethyl)phenoxy)-5-(((9-fluoro-4-oxo-6,7-dihydro-4H-pyrimido[6,1-a]isoquinolin-2-yl)oxy)methyl)benzonitrile]
1	N#Cc1cc(COc2cc3n(c(=O)n2)CCc2cc(F)ccc2-3)ccc1Oc1ccc(C(F)(F)F)cn1 [Example 93, 5-(((9-fluoro-4-oxo-6,7-dihydro-4H-pyrimido[6,1-a]isoquinolin-2-yl)oxy)methyl)-2-((5-(trifluoromethyl)pyridin-2-yl)oxy)benzonitrile]
1	O=c1nc(OCc2cc(F)c(Oc3ccc(C(F)(F)F)nc3)c(F)c2)cc2n1CCc1ccccc1-2 [Example 94, 2-((3,5-difluoro-4-((6-(trifluoromethyl)pyridin-3-yl)oxy)benzyl)oxy)-6,7-dihydro-4H-pyrimido[6,1-a]isoquinolin-4-one]
0.794	N#Cc1cc(COc2cc3n(c(=O)n2)CCc2ccccc2-3)ccc1Oc1cccc(C(F)(F)F)n1 [Example 96, 5-(((4-oxo-6,7-dihydro-4H-pyrimido[6,1-a]isoquinolin-2-yl)oxy)methyl)-2-((6-(trifluoro-methyl)pyridin-2-yl)oxy)benzonitrile]
≤ 0.501	O=c1nc(OCc2ccc(Oc3cnc(C(F)(F)F)nc3)c(F)c2)cc2n1CCc1cc(F)ccc1-2 [Example 98, 9-fluoro-2-((3-fluoro-4-((2-(trifluoromethyl)pyrimidin-5-yl)oxy)benzyl)oxy)-6,7-dihydro-4H-pyrimido[6,1-a]isoquinolin-4-one]
≤ 0.501	COc1ccc2c(c1)CCn1c-2cc(Oc2ccc(Oc3cccc(C(F)(F)F)c3)c(C#N)c2)nc1=O [Example E1, 5-((9-Methoxy-4-oxo-6,7-dihydro-4H-pyrimido[6,1-a]isoquinolin-2-yl)oxy)-2-(3-(trifluoromethyl)phenoxy)benzonitrile]
0.631	COc1ccc2c(c1)CCn1c-2cc(OCc2ccc(Oc3ccc(C(F)(F)F)cn3)c(C#N)c2)nc1=O [Example E22, 5-(((9-Methoxy-4-oxo-6,7-dihydro-4H-pyrimido[6,1-a]isoquinolin-2-yl)oxy)methyl)-2-((5-(trifluoromethyl)pyridin-2-yl)oxy)benzonitrile]
1	COc1ccc2c(c1)CCn1c-2cc(OCc2ccc(Oc3ccc(C(F)(F)F)nc3)c(C#N)c2)nc1=O [Example E36, 5-({[9-(Methyloxy)-4-oxo-6,7-dihydro-4H-pyrimido[6,1-a]isoquinolin-2-yl]oxy}methyl)-2-{[6-(trifluoromethyl)-3-pyridinyl]oxy}benzonitrile]
1	COc1ccc2c(c1)CCn1c-2cc(OCc2ccc(Oc3ccc(C(F)(F)F)nc3)c(F)c2)nc1=O [Example E58, 2-((3-fluoro-4-((6-(trifluoromethyl)pyridin-3-yl)oxy)benzyl)oxy)-9-methoxy-6,7-dihydro-4H-pyrimido[6,1-a]isoquinolin-4-one]
